In ChEMBL document CHEMBL1201862, “PubChem BioAssay data set” (2004):
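48-hour exposure; five concentrations; linearly interpolated endpoints. Abbreviation: GI50, concentration required for 50% inhibition of growth.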 Active and inactive are the calls of the source. No stated cut-off is given here; in the data, active = GI50 up to about 1.1 µM and inactive = higher.

Columns and labels:
Assay in all cases: NCI tumour cell line growth inhibition, 48 h
CCRF-CEM = system: CCRF-CEM
HL-60 = system: HL-60
SNB-19 = system: SNB-19
HCT-116 = system: HCT-116
UACC-257 = system: UACC-257
Malme-3M = system: Malme-3M
NCI/ADR-RES = system: NCI/ADR-RES
HOP-18 = system: HOP-18
SK-MEL-2 = system: SK-MEL-2
UO-31 = system: UO-31
M19-MEL = system: M19-MEL
DMS-273 = system: DMS-273
RXF 393 = system: RXF 393
SK-OV-3 = system: SK-OV-3
SF-539 = system: SF-539
U-251 = system: U-251
EKVX = system: EKVX
SW-620 = system: SW-620
MOLT-4 = system: MOLT-4
HOP-92 = system: HOP-92
HOP-62 = system: HOP-62
OVCAR-4 = system: OVCAR-4
COLO 205 = system: COLO 205
CAKI-1 = system: CAKI-1
OVCAR-8 = system: OVCAR-8
RPMI-8226 = system: RPMI-8226
SF-268 = system: SF-268
NCI-H460 = system: NCI-H460
HCT-15 = system: HCT-15
OVCAR-3 = system: OVCAR-3
SK-MEL-28 = system: SK-MEL-28
IGROV-1 = system: IGROV-1
SF-295 = system: SF-295
UACC-62 = system: UACC-62
LOX IMVI = system: LOX IMVI
A549 = system: A549
K562 = system: K562
SNB-75 = system: SNB-75
SN12C = system: SN12C
XF498 = system: XF498
NCI-H226 = system: NCI-H226
DLD-1 = system: DLD-1
KM-20L2 = system: KM-20L2
KM12 = system: KM12
DMS-114 = system: DMS-114
MCF7 = system: MCF7
HCC 2998 = system: HCC 2998
NCI-H522 = system: NCI-H522
HT-29 = system: HT-29
SK-MEL-5 = system: SK-MEL-5
OVCAR-5 = system: OVCAR-5
NCI-H23 = system: NCI-H23
SNB-78 = system: SNB-78
786-0 = system: 786-0
TK-10 = system: TK-10
LXFL 529 = system: LXFL 529
ACHN = system: ACHN
A498 = system: A498
M14 = system: M14
SR = system: SR

## Brc1ccc2[nH]c3c(C4=NCCC4)nccc3c2c1
CCRF-CEM
  GI50: 10.4 µM (inactive)
HL-60
  GI50: 5.79 µM (inactive)
SNB-19
  GI50: 21.7 µM (inactive)
HCT-116
  GI50: 9.86 µM (inactive)
UACC-257
  GI50: 16.9 µM (inactive)
Malme-3M
  GI50: 1.91 µM (inactive)
NCI/ADR-RES
  GI50: 40 µM (inactive)
HOP-18
  GI50: 10.2 µM (inactive)
SK-MEL-2
  GI50: 13.9 µM (inactive)
UO-31
  GI50: 14.8 µM (inactive)
M19-MEL
  GI50: 26.9 µM (inactive)
DMS-273
  GI50: 14.4 µM (inactive)
RXF 393
  GI50: 16.3 µM (inactive)
SK-OV-3
  GI50: 26.7 µM (inactive)
SF-539
  GI50: 9.53 µM (inactive)
U-251
  GI50: 12.5 µM (inactive)
EKVX
  GI50: 13 µM (inactive)
SW-620
  GI50: 21.3 µM (inactive)
MOLT-4
  GI50: 8.45 µM (inactive)
HOP-92
  GI50: > 26.9 µM (inactive)
HOP-62
  GI50: 11.6 µM (inactive)
OVCAR-4
  GI50: 17.1 µM (inactive)
COLO 205
  GI50: 23.3 µM (inactive)
CAKI-1
  GI50: 19.6 µM (inactive)
OVCAR-8
  GI50: 13.5 µM (inactive)
RPMI-8226
  GI50: 9.27 µM (inactive)
SF-268
  GI50: 16.1 µM (inactive)
NCI-H460
  GI50: 9.95 µM (inactive)
HCT-15
  GI50: 17 µM
OVCAR-3
  GI50: 61 µM (inactive)
SK-MEL-28
  GI50: 16.4 µM (inactive)
IGROV-1
  GI50: 18.7 µM (inactive)
SF-295
  GI50: 10.6 µM (inactive)
UACC-62
  GI50: 9.73 µM (inactive)
LOX IMVI
  GI50: 18 µM (inactive)
A549
  GI50: 16.3 µM (inactive)
K562
  GI50: 11.3 µM (inactive)
SNB-75
  GI50: 31.3 µM (inactive)
SN12C
  GI50: 19.1 µM (inactive)
XF498
  GI50: > 39.5 µM (inactive)
NCI-H226
  GI50: 10.2 µM (inactive)
DLD-1
  GI50: 15.5 µM (inactive)
KM-20L2
  GI50: 8.17 µM (inactive)
KM12
  GI50: 41.5 µM (inactive)
DMS-114
  GI50: 14.5 µM (inactive)
MCF7
  GI50: 9.25 µM (inactive)
HCC 2998
  GI50: 12.2 µM (inactive)
NCI-H522
  GI50: 9.12 µM (inactive)
HT-29
  GI50: 11.2 µM (inactive)
SK-MEL-5
  GI50: 8.47 µM (inactive)
OVCAR-5
  GI50: 6.11 µM (inactive)
NCI-H23
  GI50: 24.8 µM (inactive)
SNB-78
  GI50: > 100 µM (inactive)

## Cc1cc(C)nc(NS(=O)(=O)c2ccc(NC(=O)c3ccc(Cl)c4c(Nc5ccc(S(=O)(=O)N=C(N)N)cc5)c5ccccc5nc34)cc2)n1
HL-60
  GI50: 3.72 µM (inactive)
SNB-19
  GI50: > 100 µM (inactive)
HCT-116
  GI50: 24 µM (inactive)
UACC-257
  GI50: 51.8 µM (inactive)
Malme-3M
  GI50: > 100 µM (inactive)
HOP-18
  GI50: > 100 µM (inactive)
UO-31
  GI50: > 100 µM (inactive)
DMS-273
  GI50: 33.5 µM (inactive)
RXF 393
  GI50: > 10 µM (inactive)
SK-OV-3
  GI50: > 100 µM (inactive)
SF-539
  GI50: 34 µM (inactive)
U-251
  GI50: 34.8 µM (inactive)
EKVX
  GI50: > 100 µM (inactive)
SW-620
  GI50: 17.4 µM (inactive)
786-0
  GI50: 32.7 µM (inactive)
MOLT-4
  GI50: 19.5 µM (inactive)
HOP-92
  GI50: 25.5 µM (inactive)
HOP-62
  GI50: > 100 µM (inactive)
OVCAR-4
  GI50: 59.2 µM (inactive)
COLO 205
  GI50: 61.5 µM (inactive)
CAKI-1
  GI50: > 100 µM (inactive)
OVCAR-8
  GI50: 8.65 µM (inactive)
RPMI-8226
  GI50: 28.1 µM (inactive)
SF-268
  GI50: 35.1 µM (inactive)
TK-10
  GI50: 33.9 µM (inactive)
NCI-H460
  GI50: > 10 µM (inactive)
OVCAR-3
  GI50: 44.3 µM (inactive)
SK-MEL-28
  GI50: 58.9 µM (inactive)
IGROV-1
  GI50: 63.8 µM (inactive)
SF-295
  GI50: > 100 µM (inactive)
UACC-62
  GI50: 36.3 µM (inactive)
LOX IMVI
  GI50: 17.8 µM (inactive)
A549
  GI50: > 100 µM (inactive)
K562
  GI50: 19 µM (inactive)
SNB-75
  GI50: > 100 µM (inactive)
SN12C
  GI50: 20.8 µM (inactive)
XF498
  GI50: > 100 µM (inactive)
LXFL 529
  GI50: 44.3 µM (inactive)
NCI-H226
  GI50: > 100 µM (inactive)
ACHN
  GI50: > 100 µM (inactive)
DLD-1
  GI50: 7.67 µM (inactive)
KM-20L2
  GI50: 50.2 µM (inactive)
KM12
  GI50: 37.9 µM (inactive)
DMS-114
  GI50: 29.9 µM (inactive)
HCC 2998
  GI50: 29.1 µM (inactive)
A498
  GI50: > 100 µM (inactive)
NCI-H522
  GI50: 16.1 µM (inactive)
HT-29
  GI50: 16.4 µM (inactive)
SK-MEL-5
  GI50: > 100 µM (inactive)
OVCAR-5
  GI50: > 100 µM (inactive)
M14
  GI50: > 100 µM (inactive)
NCI-H23
  GI50: 3.91 µM (inactive)
SNB-78
  GI50: > 100 µM (inactive)

## CN(CC#N)C1CCCC[C@H]1O (stereo partly drawn)
CCRF-CEM
  GI50: > 100 µM (inactive)
HL-60
  GI50: > 100 µM (inactive)
SNB-19
  GI50: > 100 µM (inactive)
HCT-116
  GI50: > 100 µM (inactive)
UACC-257
  GI50: > 100 µM (inactive)
Malme-3M
  GI50: > 100 µM (inactive)
HOP-18
  GI50: > 100 µM (inactive)
SK-MEL-2
  GI50: > 100 µM (inactive)
UO-31
  GI50: > 100 µM (inactive)
DMS-273
  GI50: > 100 µM (inactive)
RXF 393
  GI50: > 100 µM (inactive)
SK-OV-3
  GI50: > 100 µM (inactive)
SF-539
  GI50: > 100 µM (inactive)
U-251
  GI50: > 100 µM (inactive)
EKVX
  GI50: > 100 µM (inactive)
SW-620
  GI50: > 90.4 µM (inactive)
786-0
  GI50: > 100 µM (inactive)
MOLT-4
  GI50: > 100 µM (inactive)
HOP-92
  GI50: > 100 µM (inactive)
HOP-62
  GI50: > 100 µM (inactive)
OVCAR-4
  GI50: > 100 µM (inactive)
COLO 205
  GI50: > 100 µM (inactive)
CAKI-1
  GI50: > 100 µM (inactive)
OVCAR-8
  GI50: > 100 µM (inactive)
RPMI-8226
  GI50: > 100 µM (inactive)
SF-268
  GI50: > 100 µM (inactive)
TK-10
  GI50: > 100 µM (inactive)
NCI-H460
  GI50: > 100 µM (inactive)
HCT-15
  GI50: > 100 µM
OVCAR-3
  GI50: > 100 µM (inactive)
SK-MEL-28
  GI50: > 100 µM (inactive)
IGROV-1
  GI50: > 100 µM (inactive)
SF-295
  GI50: > 100 µM (inactive)
UACC-62
  GI50: > 100 µM (inactive)
LOX IMVI
  GI50: > 100 µM (inactive)
A549
  GI50: > 100 µM (inactive)
K562
  GI50: > 100 µM (inactive)
SNB-75
  GI50: > 100 µM (inactive)
SN12C
  GI50: > 100 µM (inactive)
XF498
  GI50: > 100 µM (inactive)
LXFL 529
  GI50: > 100 µM (inactive)
NCI-H226
  GI50: > 100 µM (inactive)
ACHN
  GI50: > 100 µM (inactive)
DLD-1
  GI50: > 100 µM (inactive)
KM-20L2
  GI50: > 100 µM (inactive)
KM12
  GI50: > 100 µM (inactive)
DMS-114
  GI50: > 100 µM (inactive)
HCC 2998
  GI50: > 100 µM (inactive)
A498
  GI50: > 100 µM (inactive)
NCI-H522
  GI50: > 100 µM (inactive)
HT-29
  GI50: > 100 µM (inactive)
SK-MEL-5
  GI50: > 100 µM (inactive)
OVCAR-5
  GI50: > 100 µM (inactive)
M14
  GI50: > 100 µM (inactive)
SR
  GI50: 46.6 µM (inactive)
NCI-H23
  GI50: > 100 µM (inactive)
SNB-78
  GI50: > 100 µM (inactive)
